Reference: patent publication US20160375439A1, “Apparatus and Methods for Single-Particle Isolation and Single-Particle Measurement” (priority 2015, published 2016)
Values joined by “and” are separate entries in the source; they are usually repeats but may differ in a detail not shown here. Equal entries are not always repeated. “Also recorded” adds a separate entry of the source. Where two headings read alike, the source gives them in different places.

Columns and labels:
22Rv1 cells [1] = format: cell-based, human
Description: (§1) The procedure for drug accumulation measurement has previously been reported.^45-47 Briefly, the anti-cancer drug (i.e., DNR or OG-PTX) was introduced via Reservoir D and drug accumulation of the anti-cancer drug was measured in the single cell. […] DNR was first used for drug accumulation measurement as it had inherent fluorescence (λex=470 nm; λem=585 nm). Thereafter, paclitaxel that was fluorescently labelled by Oregon Green was examined (λex=492 nm; λem=524 nm), since paclitaxel was the commonly-used anti-cancer drug for prostate cancer treatment.
As shown in FIG. 11a (solid line), the fluorescence signal of the DNR was 630±77. After adding different concentrations of FTC, the signals were enhanced. Similar experiments were performed by adding different concentrations of OG-PTX (FIG. 11a: dashed line). Therefore, the optimal fluorescence signals were obtained after treating the single cells with both anti-cancer drugs in the presence of 40 μM of FTC.
Obvious enhancement in fluorescent intensity (at 585 nm) was observed (i.e., 2.8±0.3, 4.4±0.5, 4.9±0.5 fold-increase (p<0.0001). After washing the cell, anti-P-gp was applied. The fluorescence signal (524 nm) increased from 265±70 to 615±72 cps, confirming that the PCa cell was cancerous.
One of the key requirements for the effectiveness of chemotherapy is the sufficient delivery of chemotherapeutic drug into the cancer cell.^66-69 As mentioned, drug resistance due to MDR activity is due to the function of ABC transporters that reduce intracellular drug accumulation. […] Similar results were obtained after applying OG-PTX in the presence of same MDR inhibitors (FIG. 15a: black solid line & FIG. 15b: gray solid line) (3.0±0.2, 3.1±0.2, 3.1±0.2, and 2.9±0.2, 2.9±0.2, 3.0±0.2 of fold-increase, respectively). […] On the other hand, after accumulation of DNR in the presence of MDR inhibitors, DNR was more effectively retained in MDR cells following removal of MDR inhibitors, particularly FTC from single MDR-treated cell (FIG. 14b: black dashed line).

22Rv1 cells [2] = conditions: 22Rv1 cells treated by FTC (25 μM); cited from earlier work
22Rv1 cells [3] = format: cell-based, human; conditions: for a2 (pre-exponential factor, normalized fluorescence plateau) / b2: same single cell
Description: We previously reported that a mono-exponential drug uptake model could be applied to fit the experimental data in order to compare drug accumulation kinetics in MDR cells.^45 The following equation was used to describe the time-dependent change of single-cell DNR accumulation:
where x is time; y is the normalized fluorescence signal obtained by dividing the intracellular concentrations by the extracellular DNR concentrations; a is the y-axis value that will reach when the time x is sufficiently large (this value is called pre-exponential factor that is related to the cell permeability coefficient p of drug uptake and the pump rate k for drug efflux); b, which is the half time when y reaches 50% of a, is given by
The curve fitting analysis was performed on the normalized fluorescence using the SAS software. […] Because of the initially large drug concentration gradient across the cell membrane, the initial cellular accumulation rate of drugs is very fast,^65 and this fast rate is shown as a short half time of ˜106 s in FIG. 13a. When the concentration gradient became smaller, the drug uptake rate became slower; ultimately, the signal reached a plateau as the drug uptake rate was close to the drug efflux rate. In the presence of FTC, drug accumulation increased (FIG. 13b). This significant drug enhancement is believed to be caused by the action of FTC on the ABCG2 drug efflux pump.
In a similar manner, an experiment was conducted by treating a 22Rv1 cell by 3 μM of OG-PTX, followed by OG-PTX-loaded FTC40 of μM, as shown in FIGS. 13c and 13d.

22Rv1 cells [4] = experiment: Effect of MDR inhibitors on DNR accumulation in single 22Rv1 cell; format: cell-based, human
22Rv1 cells [5] = experiment: On-chip drug accumulation measurement (fluorescence) of anti-cancer drug alone in a single 22Rv1 cell; format: cell-based, human; conditions: for corrected signal of OG-PTX / corrected signal of DNR (Fi): single 22Rv1 cell; for corrected signal of OG-PTX: FIG. 8b; for corrected signal of DNR (Fi): FIG. 8a
Description: After the cell was kept stationary, the medium was introduced into Reservoir D to induce a liquid flow to make sure the cell was stationary before running the drug accumulation experiment. An optical detection system was employed for simultaneous fluorescence measurement and bright-field imaging.^47,58
as §1
Drug accumulation was conducted in Chamber 2. In the first step, accumulation of the anti-cancer drug (i.e., DNR or OG-PTX) in the MDR single cell was measured in the absence of MDR inhibitor (FIG. 7a). The 22Rv1 cells naturally express the ABCG2 transporter, which actively transports drug molecules out of the cell.^50 As DNR is a well-known ABCG2 substrate,^51 the initial accumulation of DNR without the influence of any MDR inhibitor was low. […] When the cell was inside the window, the total fluorescent intensity (Ft) was measured; whereas the background (Fb) was measured when the cell was outside the window.^58, 59 Subtraction of the background (Fb) from the total fluorescent intensity (Ft) gave a corrected signal (Fi) representing the drug concentration inside the single prostate cancer cell.^45, 59
The experiment was continued using DNR at different concentrations (3.5, 7, 14, 35, 70, 350 μM) in order to determine the reasonable initial signal of drug accumulation in the cell. […] The signal obtained from DNR at 35 μM provided the optimal initial value. Similarly, other experiments were conducted on a single 22Rv1 cell by treating the cell with OG-PTX at different concentrations (0.3, 1.5, 3, 6, 30 μM). […] Therefore, the optimal fluorescence signal was obtained after treating the single cell with 3 μM of OG-PTX. After the optimization experiment for drug concentration, subsequent experiments were carried out with 35 μM of DNR or 3 μM of OG-PTX. […] A similar experiment was conducted on another single 22Rv1 cell by adding 3 μM of OG-PTX, indicating saturation in the fluorescent intensity (FIG. 8d).

22Rv1 cells [6] = experiment: Trypan blue treatment of single 22Rv1 cell (cell viability); format: cell-based, human
Description: This dye was used to check if the cell membrane was compromised after the exposure to the various conditions, as a measure of cell viability.

WBC [7] = experiment: Single-cell DNR accumulation in white blood cell (WBC); format: cell-based, mouse; conditions: 35 μM DNR alone, FIG. 12c
Description: as §1
On the other hand, in a similar experiment conducted on the WBC (FIG. 12c), the cell was not stained by the anti-Pgp antibody, indicating it is not a PCa cell.

WBC [8] = experiment: Trypan blue treatment of WBC; format: cell-based, mouse; conditions: after high DNR accumulation, FIG. 12 f3
leukemia cells = conditions: simultaneous administration of verapamil & CsA and MK-571; cited from earlier work
[9] = Step 2: 3 μM OG-PTX + 40 μM FTC

COc1ccc2c3c([nH]c2c1)[C@H](C=C(C)C)N1C(=O)[C@@H]2CCCN2C(=O)[C@@H]1C3 [FTC, fumitremorgin C]
fold-increase for OG-PTX accumulation, based on curve fitting (22Rv1 cells [1]; 3 μM OG-PTX + 40 μM FTC, FIG. 13): 2.4±0.4 fold
fold-increase in OG-PTX accumulation (22Rv1 cells [1]; 3 μM OG-PTX + 40 μM FTC, three successive values, FIG. 15a solid line): 3.0±0.2 fold and 3.1±0.2 fold
fold-increase in OG-PTX accumulation after removing inhibitor (22Rv1 cells [1]; 3 μM OG-PTX, FTC removed, three successive values, FIG. 15a dashed line): 2.7±0.2 fold and 1.65±0.2 fold and 1.4±0.2 fold
fold-increase in OG-PTX accumulation, average of 6 individual cell experiments (22Rv1 cells [1]; FTC, followed by CsA, then FTC+CsA on the same cell, FIG. 15c): 2.7±0.3 fold
fold accumulation of D-luciferin (22Rv1 cells [2]): 2.0 fold
half-time to reach plateau (22Rv1 cells [3]; 3 μM OG-PTX + 40 μM FTC, FIG. 13d): 24 s
half time to reach the plateau (22Rv1 cells [3]; 35 μM DNR + 40 μM FTC, FIG. 13b): 346 s
a2 (pre-exponential factor, normalized fluorescence plateau) (22Rv1 cells [3]; [9]): 2.4±0.4
b2 (22Rv1 cells [3]; [9]): 0.003 ± 0.008 s⁻¹
a2 (pre-exponential factor, normalized fluorescence plateau) (22Rv1 cells [3]; Step 2: 35 μM DNR + 40 μM FTC): 3.4±0.2
b2 (22Rv1 cells [3]; Step 2: 35 μM DNR + 40 μM FTC): 0.004 ± 0.002 s⁻¹
fold-increase for DNR accumulation, based on curve fitting (22Rv1 cells [4]; 35 μM DNR + 40 μM FTC, FIG. 13): 3.4±0.2 fold
fold-increase in DNR accumulation (22Rv1 cells [4]; 35 μM DNR + 40 μM FTC, after 1000 s of adding inhibitor, three successive values, FIG. 14a solid line): ~3.7±0.2 fold and ~3.8±0.2 fold
fold-increase in DNR accumulation after removing inhibitor (22Rv1 cells [4]; 35 μM DNR, FTC removed after 2000 s, three successive values, FIG. 14a dashed line): 3.8±0.2 fold and 3.2±0.2 fold and 2.7±0.2 fold
fold-increase in DNR accumulation signal (22Rv1 cells [4]; 35 μM DNR, after adding 40 μM FTC, FIG. 9a top curve): 3.5±0.3 fold
fold-increase in DNR accumulation, average of 6 individual cell experiments (22Rv1 cells [4]; FTC, followed by CsA, then FTC+CsA on the same cell, FIG. 14c): 3.7±0.4 fold
MDR inhibitor concentration giving the optimal fluorescence signal (22Rv1 cells [4]; single 22Rv1 cell, DNR and OG-PTX accumulation, FIG. 11): 40 µM

Oregon Green® 488-conjugated paclitaxel [OG-PTX]
fold-increase in fluorescent intensity (at 585 nm), OG-PTX accumulation (22Rv1 cells [1]; single 22Rv1 cell isolated from WBCs, successive MDR inhibitor treatments not given, FIG. 12b): 2.8±0.3 fold and 4.4±0.5 fold and 4.9±0.5 fold
corrected signal of OG-PTX (22Rv1 cells [5]; 0.3 μM OG-PTX): 60±48 cps
corrected signal of OG-PTX (22Rv1 cells [5]; 1.5 μM OG-PTX): 100±52 cps
fold-increase in OG-PTX accumulation (22Rv1 cells [5]; 3 μM OG-PTX alone for 4000 s (negative control), three successive values, FIG. 15a dotted line): 1.1±0.1 fold and 1.2±0.1 fold
corrected signal of OG-PTX (22Rv1 cells [5]; 3 μM OG-PTX): 510±88 cps and 500±55 cps
corrected signal of OG-PTX (22Rv1 cells [5]; 6 μM OG-PTX): 1300±56 cps
corrected signal of OG-PTX (22Rv1 cells [5]; 30 μM OG-PTX): 2900±72 cps
half-time to reach plateau (22Rv1 cells [3]; 3 μM OG-PTX only, FIG. 13c): 98 s
a1 (pre-exponential factor, normalized fluorescence plateau) (22Rv1 cells [3]; Step 1: 3 μM OG-PTX only): 1.0±0.1
b1 (22Rv1 cells [3]; Step 1: 3 μM OG-PTX only): 0.007 ± 0.006 s⁻¹

COc1cccc2c1C(=O)c1c(O)c3c(c(O)c1C2=O)C[C@@](O)(C(C)=O)C[C@@H]3O[C@H]1C[C@H](N)[C@H](O)[C@H](C)O1 [DNR, Daunorubicin]
cell viability by trypan blue (22Rv1 cells [6]; single 22Rv1 cell after 35 μM DNR, DEP capture and xenon lamp excitation, FIG. 9c): viable
trypan blue staining (cell membrane integrity) (22Rv1 cells [6]; single 22Rv1 cells after 35 μM DNR or 3 μM OG-PTX in the presence of 40 μM FTC, FIG. 13): no cell staining
corrected signal of DNR (Fi) (22Rv1 cells [5]; 3.5 μM DNR): 100±37 cps
corrected signal of DNR (Fi) (22Rv1 cells [5]; 7 μM DNR): 290±39 cps
corrected signal of DNR (Fi) (22Rv1 cells [5]; 14 μM DNR): 260±41 cps
fold-increase in DNR accumulation (22Rv1 cells [5]; 35 μM DNR alone for 4000 s (negative control), three successive values, FIG. 14a dotted line): 1.1±0.1 fold and 1.2±0.1 fold
fold-increase in fluorescence (22Rv1 cells [5]; 35 μM DNR only (negative control), FIG. 9a bottom curve): 1.3±0.2 fold and 1.3 fold
corrected signal of DNR (Fi) (22Rv1 cells [5]; 35 μM DNR): 535±92 cps and 530±42 cps
corrected signal of DNR (Fi) (22Rv1 cells [5]; 70 μM DNR): 550±47 cps
corrected signal of DNR (Fi) (22Rv1 cells [5]; 350 μM DNR): 1280±50 cps
fluorescence signal of the DNR (22Rv1 cells [5]; before adding FTC, FIG. 11a solid line): 630±77
half time to reach the plateau (22Rv1 cells [3]; 35 μM DNR only, FIG. 13a): ~106 s
a1 (pre-exponential factor, normalized fluorescence plateau) (22Rv1 cells [3]; Step 1: 35 μM DNR only): 1.0±0.3
b1 (22Rv1 cells [3]; Step 1: 35 μM DNR only): 0.010 ± 0.003 s⁻¹
DNR accumulation behaviour in WBC (WBC [7]): continued to rise; also recorded: continuous increase in drug accumulation
trypan blue staining of WBC (WBC [8]): staining by trypan blue
fold-increase in fluorescent intensity (at 585 nm), DNR accumulation (22Rv1 cells [4]; single 22Rv1 cell isolated from WBCs, successive MDR inhibitor treatments not given, FIG. 12a): 3.3±0.3 fold and 4.5±0.5 fold and 5.4±0.5 fold

COc1ccc(CCN(C)CCCC(C#N)(c2ccc(OC)c(OC)c2)C(C)C)cc1OC (stereo not shown) [verapamil]
intracellular levels of [3H]-azacytidine (leukemia cells): increase

CN(C)C(=O)CCSC(SCCC(=O)O)c1cccc(/C=C/c2ccc3ccc(Cl)cc3n2)c1 (stereo not shown) [MK-571]
intracellular levels of [3H]-azacytidine (leukemia cells): increase
